Reference: patent US12024510B2, “Pyrazolopyridine-diamides, their use as insecticide and processes for preparing the same” (PI INDUSTRIES LTD., priority 2017, dated 2024)

Columns and labels:
Format in all cases: in vivo
[1] = tested on: Helicoverpa armigera; assay: Helicoverpa armigera diet incorporation method; conditions: third instar larvae, dead and moribund combined, 96 h after release
Outline: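 Third-instar larvae, starved, were placed singly on diet pieces containing test dispersion (bead-milled in surfactant, particles under 2 μm, 500 ppm stock then diluted). Trays kept at 25° C. and 70% RH; mortality counted at 96 h, moribund larvae counted with dead.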

[2] = tested on: Plutella xylostella; assay: whole plant or invertebrate; conditions: foliar, cabbage leaf dip, second instar larvae, dead and moribund combined, 72 h after release
Outline: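 Leaf-dip bioassay: second-instar larvae, singly, fed on cabbage leaves dipped 10 s in test dispersion (bead-milled, diluted with 0.01% Triton-X to test concentration) and dried 20 min. Held at 25 °C, 70% RH; % mortality counts dead and moribund at 72 h.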

[3] = tested on: Spodoptera litura; assay: Spodoptera litura diet incorporation method; conditions: third instar larvae, dead and moribund combined, 96 h after release
Outline: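 Compound milled to <2 μm average particle size in surfactant, dispersed in water (500 ppm stock dispersion), then mixed into semi-synthetic diet at ~50° C. One starved third-instar larva per diet cell, 25° C, 70% RH; percent mortality (dead plus moribund) scored at 96 h.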

Measured: mortality at 300 ppm

COc1cc(C(=O)Nc2c(C)cc3ccnn3c2C(=O)NCC2CCOCC2)n(-c2ncccc2Cl)n1 [Compound 201, 6-(1-(3-chloropyridin-2-yl)-3-methoxy-1H-pyrazole-5-carboxamido)-5-methyl-N-((tetrahydro-2H-pyran-4-yl)methyl)pyrazolo[1,5-a]pyridine-7-carboxamide]
> 70%: all assays above

Cc1cc2ccnn2c(C(=O)NC(C)C)c1NC(=O)c1cc(C(F)(F)F)nn1-c1ncccc1Cl [Compound 60, 6-(1-(3-chloropyridin-2-yl)-3-(trifluoromethyl)-1H-pyrazole-5-carboxamido)-N-isopropyl-5-methylpyrazolo[1,5-a]pyridine-7-carboxamide]
> 70%: all assays above

Cc1cc2ccnn2c(C(=O)NC(C)C)c1NC(=O)c1cc(Oc2cc(C(F)(F)F)nn2C)nn1-c1ncccc1Cl [Compound 71, 6-(1-(3-chloropyridin-2-yl)-3-((1-methyl-3-(trifluoromethyl)-1H-pyrazol-5-yl)oxy)-1H-pyrazole-5-carboxamido)-N-isopropyl-5-methylpyrazolo[1,5-a]pyridine-7-carboxamide]
> 70%: all assays above

C#CCNC(=O)c1c(NC(=O)c2cc(C(F)(F)F)nn2-c2ncccc2Cl)c(C)cc2ccnn12 [Compound 108, 6-(1-(3-chloropyridin-2-yl)-3-(trifluoromethyl)-1H-pyrazole-5-carboxamido)-5-methyl-N-(prop-2-yn-1-yl)pyrazolo[1,5-a]pyridine-7-carboxamide]
> 70%: all assays above

COc1cc(C(=O)Nc2c(Cl)cc3ccnn3c2C(=O)NC2CC2)n(-c2ncccc2Cl)n1 [Compound 132, 5-chloro-6-(1-(3-chloropyridin-2-yl)-3-methoxy-1H-pyrazole-5-carboxamido)-N-cyclopropylpyrazolo[1,5-a]pyridine-7-carboxamide]
> 70%: all assays above

Cc1cc2ccnn2c(C(=O)NC2CC2)c1NC(=O)c1cc(OCC(F)(F)F)nn1-c1ncccc1Cl [Compound 13, 6-(1-(3-chloropyridin-2-yl)-3-(2,2,2-trifluoroethoxy)-1H-pyrazole-5-carboxamido)-N-cyclopropyl-5-methylpyrazolo[1,5-a]pyridine-7-carboxamide]
> 70%: all assays above

CNC(=O)c1c(NC(=O)c2cc(OC)nn2-c2ncccc2Cl)c(C)cc2ccnn12 [Compound 25, 6-(1-(3-chloropyridin-2-yl)-3-methoxy-1H-pyrazole-5-carboxamido)-N,5-dimethylpyrazolo[1,5-a]pyridine-7-carboxamide]
> 70%: all assays above

CCNC(=O)c1c(NC(=O)c2cc(OC)nn2-c2ncccc2Cl)c(Cl)cc2ccnn12 [Compound 134, 5-chloro-6-(1-(3-chloropyridin-2-yl)-3-methoxy-1H-pyrazole-5-carboxamido)-N-ethylpyrazolo[1,5-a]pyridine-7-carboxamide]
> 70%: all assays above

COc1cc(C(=O)Nc2c(C)cc3ccnn3c2C(=O)NC(C)C)n(-c2ncccc2Cl)n1 [Compound 32, 6-(1-(3-chloropyridin-2-yl)-3-methoxy-1H-pyrazole-5-carboxamido)-N-isopropyl-5-methylpyrazolo[1,5-a]pyridine-7-carboxamide]
> 70%: all assays above

C#CCNC(=O)c1c(NC(=O)c2cc(Br)nn2-c2ncccc2Cl)c(Cl)cc2ccnn12 [Compound 141, 6-(3-bromo-1-(3-chloropyridin-2-yl)-1H-pyrazole-5-carboxamido)-5-chloro-N-(prop-2-yn-1-yl)pyrazolo[1,5-a]pyridine-7-carboxamide]
> 70%: all assays above

Cc1cc2ccnn2c(C(=O)NC(C)C)c1NC(=O)c1cc(OCC(F)(F)F)nn1-c1ncccc1Cl [Compound 12, 6-(1-(3-chloropyridin-2-yl)-3-(2,2,2-trifluoroethoxy)-1H-pyrazole-5-carboxamido)-N-isopropyl-5-methylpyrazolo[1,5-a]pyridine-7-carboxamide]
> 70%: all assays above
